pIC50: −log10 of the molar value. In brackets after ≈: the same amount, converted by molar mass.
How the values were obtained:
[1] = tested on: S. aureus ATCC 29213; experiment: MIC, CLSI broth microdilution, S. aureus ATCC 29213; assay type: cell-based; conditions: Staphylococcus aureus, ATCC29213
[2] = target: T1, CYP2C19 (Homo sapiens, UniProt P33261); experiment: CYP450 inhibition in human liver microsomes, CYP2C19; assay type: in vitro ADME; conditions: 10 μM
T1 construct: incubated with human liver microsomes (mixed gender, pool of 50 donors, 0.1 mg/mL); from tissue; host or cells: human liver microsomes, pool of 50 donors
Protocol: (§1) CYP450 inhibition assays was conducted using individual enzyme substrates and inhibitors instead of a cocktail to avoid interferences. CYP450 isoforms tested included the following: CYP1A2, CYP2B6, CYP2C8, CYP2C9, CYP2C19, CYP2D6, and CYP3A4. Each test compound was screened at a final concentration of 10 μM. Each test compound was incubated with human liver microsomes (mixed gender, pool of 50 donors, 0.1 mg/mL), CYP450-selective probe substrates, and co-factors (NADPH, MgCl2) in phosphate buffer (pH 7.4) for 10-30 min in a 96-well plate at 37° C. The reactions were stopped by transferring the reaction mixture to acetonitrile/methanol. Samples were mixed and centrifuged, and the supernatants analyzed by LC-MS/MS to quantify percent inhibition relative to vehicle control.

[3] = tested on: S. aureus ATCC 29213; experiment: microbe, parasite or virus in culture; assay type: cell-based; conditions: Staphylococcus aureus, ATCC29213, read-out: S. aureus ATCC 29213 MIC (n = 2); CLSI agar dilution
Protocol: In order to determine the spontaneous mutation frequency of investigational agents (Table 4), the MIC was first determined using the agar dilution method as recommended by the Clinical and Laboratory Standards Institute.
Triplicate independent inocula of S. aureus ATCC 29213 were evaluated.

[4] = target: T2, CYP1A2 (Homo sapiens, UniProt P05177); assay type: in vitro ADME; conditions: 10 μM; human liver microsomes
T2 construct: incubated with human liver microsomes (mixed gender, pool of 50 donors, 0.1 mg/mL); from tissue; host or cells: human liver microsomes, pool of 50 donors
Protocol: as §1

[5] = target: Dopamine transporter (Homo sapiens, UniProt Q01959); experiment: Off-target safety panel, dopamine transporter; assay type: binding; conditions: duplicate, read-out: % Inhibition at 100 μM conc., Dopamine transporter
Protocol: Potential off-target pharmacology for compound 6 was also evaluated by screening in duplicate against a panel (Bowes, J., et al., Reducing Safety-Related Drug Attrition: The Use of in vitro Pharmacological Profiling. Nat. Rev. Drug Disc. 2012, 11, 909-922) of 44 receptors, enzymes, etc. Of the 44 potential targets, only five were inhibited by >50% at a concentration of 100 μM (Table 7).

[6] = tested on: Streptococcus pyogenes LSI-1235; experiment: MIC panel (Laboratory Specialists, Inc.), S. pyogenes; assay type: cell-based; conditions: LSI1235, Cmpd. 6, CLSI broth microdilution
[7] = target: T3, CYP2C9 (Homo sapiens, UniProt P11712); experiment: CYP450 inhibition in human liver microsomes, CYP2C9; assay type: in vitro ADME; conditions: 10 μM
T3 construct: incubated with human liver microsomes (mixed gender, pool of 50 donors, 0.1 mg/mL); from tissue; host or cells: human liver microsomes, pool of 50 donors
Protocol: as §1

[8] = tested on: Pseudomonas aeruginosa LSI-2946; experiment: MIC panel (Laboratory Specialists, Inc.), P. aeruginosa; assay type: cell-based; conditions: LSI2946, Cmpd. 6, CLSI broth microdilution
[9] = tested on: Enterococcus faecium LSI-3340; experiment: MIC panel (Laboratory Specialists, Inc.), E. faecium LSI-3340; assay type: cell-based; conditions: LSI3340, Cmpd. 6, vancomycin-resistant strain
[10] = tested on: HepaRG cells; experiment: ATP viability cytotoxicity assay in HepaRG cells; assay type: cell-based; conditions: 24 hours
Protocol: The cytotoxicity of compound 6 was measured using an ATP viability assay in HepaRG cells, with a five-point concentration-response curve (Table 8).
HepaRG cells were plated in a collagen coated 96-well plate overnight and treated the next day with test compounds and controls for 24 hours. Tamoxifen was used as a positive control compound for cytotoxicity (25 μM). After 24 hours, the plate was equilibrated to room temperature for 30 minutes and Cell Titer-Glo Reagent was added. Luminescence was measured using an EnSpire multimode plate reader. Data were reported as % cytotoxi city compared to vehicle treated control.
Cytotoxicity was determined by calculating the percentage of vehicle control: […]

[11] = target: hERG (Homo sapiens, UniProt Q12809); experiment: hERG IC50, IonWorks Barracuda (Charles River); conditions: 6 versus 24
Text: The design of these isomannide-detived NBTIs focused on enhanced polarity and modulation of basicity through the two electronegative oxygen atoms in the linker.

[12] = target: S. aureus DNA gyrase (Staphylococcus aureus, UniProt P20831); experiment: Inhibition of DNA gyrase, biochemical assay (Inspiralis); conditions: S. aureus DNA gyrase; Inspiralis, Ltd.; read-out: Gyrase IC50
[13] = target: T4, CYP2D6 (Homo sapiens, UniProt P10635); experiment: CYP450 inhibition in human liver microsomes, CYP2D6; assay type: in vitro ADME; conditions: 10 μM
T4 construct: incubated with human liver microsomes (mixed gender, pool of 50 donors, 0.1 mg/mL); from tissue; host or cells: human liver microsomes, pool of 50 donors
Protocol: as §1

[14] = target: T5, CYP2B6 (Homo sapiens, UniProt P20813); experiment: CYP450 inhibition in human liver microsomes, CYP2B6; assay type: in vitro ADME; conditions: 10 μM
T5 construct: incubated with human liver microsomes (mixed gender, pool of 50 donors, 0.1 mg/mL); from tissue; host or cells: human liver microsomes, pool of 50 donors
Protocol: as §1

[15] = target: T6, Cav1.2 (L-type) Human Calcium Ion Channel (Homo sapiens, UniProt Q13936); experiment: Cav1.2 (L-type) QPatch CiPA assay; assay type: cell-based; conditions: mean, duplicate
T6 construct: expressed in transfected cells
Text: Early drug discovery programs commonly assess hERG inhibition as the only indicator of potential cardiovascular safety concerns. Researchers have recently recommended a more rigorous evaluation of multiple cardiac ion channels to provide a more comprehensive cardiovascular risk assessment (Fermini, B., et al., A New Perspective in the Field of Cardiac Safety Testing through the Comprehensive In Vitro Proarrhythmia Assay Paradigm. J. Biomolec. Screening 2016, 21, 1-11). Given the promising initial results for 6, further evaluation was undertaken (in duplicate) in a Comprehensive in vitro Proarrhythmia Assay (CiPA) eight assay panel run on the QPatch HT (Sophion, Denmark) automated patch clamp system at three concentrations (3, 30, and 100 μM). All data were filtered for seal quality, seal drop, and current amplitude. A stock solution of the test compound at 30 mM concentration was prepared in DMSO.
The parameters measured were the maximum inward current evoked on stepping to 10 mV from the test pulse. The peak current amplitude was calculated before and after compound addition and the amount of block was assessed by dividing the Test compound current amplitude by the Control current amplitude. Control is the mean hCav1.2 current amplitude collected 15 seconds at the end of the control; Test Compound is the mean hCav1.2 current amplitude collected in the presence of test compound at each concentration. The positive control was nifedipine.

[16] = tested on: USA300 isolate of MRSA; experiment: MIC, CLSI broth microdilution, USA300 MRSA; assay type: cell-based; conditions: Staphylococcus aureus; CLSI broth microdilution; ciprofloxacin-resistant MRSA; read-out: MIC USA300

T6 sequence (Q13936 whole entry): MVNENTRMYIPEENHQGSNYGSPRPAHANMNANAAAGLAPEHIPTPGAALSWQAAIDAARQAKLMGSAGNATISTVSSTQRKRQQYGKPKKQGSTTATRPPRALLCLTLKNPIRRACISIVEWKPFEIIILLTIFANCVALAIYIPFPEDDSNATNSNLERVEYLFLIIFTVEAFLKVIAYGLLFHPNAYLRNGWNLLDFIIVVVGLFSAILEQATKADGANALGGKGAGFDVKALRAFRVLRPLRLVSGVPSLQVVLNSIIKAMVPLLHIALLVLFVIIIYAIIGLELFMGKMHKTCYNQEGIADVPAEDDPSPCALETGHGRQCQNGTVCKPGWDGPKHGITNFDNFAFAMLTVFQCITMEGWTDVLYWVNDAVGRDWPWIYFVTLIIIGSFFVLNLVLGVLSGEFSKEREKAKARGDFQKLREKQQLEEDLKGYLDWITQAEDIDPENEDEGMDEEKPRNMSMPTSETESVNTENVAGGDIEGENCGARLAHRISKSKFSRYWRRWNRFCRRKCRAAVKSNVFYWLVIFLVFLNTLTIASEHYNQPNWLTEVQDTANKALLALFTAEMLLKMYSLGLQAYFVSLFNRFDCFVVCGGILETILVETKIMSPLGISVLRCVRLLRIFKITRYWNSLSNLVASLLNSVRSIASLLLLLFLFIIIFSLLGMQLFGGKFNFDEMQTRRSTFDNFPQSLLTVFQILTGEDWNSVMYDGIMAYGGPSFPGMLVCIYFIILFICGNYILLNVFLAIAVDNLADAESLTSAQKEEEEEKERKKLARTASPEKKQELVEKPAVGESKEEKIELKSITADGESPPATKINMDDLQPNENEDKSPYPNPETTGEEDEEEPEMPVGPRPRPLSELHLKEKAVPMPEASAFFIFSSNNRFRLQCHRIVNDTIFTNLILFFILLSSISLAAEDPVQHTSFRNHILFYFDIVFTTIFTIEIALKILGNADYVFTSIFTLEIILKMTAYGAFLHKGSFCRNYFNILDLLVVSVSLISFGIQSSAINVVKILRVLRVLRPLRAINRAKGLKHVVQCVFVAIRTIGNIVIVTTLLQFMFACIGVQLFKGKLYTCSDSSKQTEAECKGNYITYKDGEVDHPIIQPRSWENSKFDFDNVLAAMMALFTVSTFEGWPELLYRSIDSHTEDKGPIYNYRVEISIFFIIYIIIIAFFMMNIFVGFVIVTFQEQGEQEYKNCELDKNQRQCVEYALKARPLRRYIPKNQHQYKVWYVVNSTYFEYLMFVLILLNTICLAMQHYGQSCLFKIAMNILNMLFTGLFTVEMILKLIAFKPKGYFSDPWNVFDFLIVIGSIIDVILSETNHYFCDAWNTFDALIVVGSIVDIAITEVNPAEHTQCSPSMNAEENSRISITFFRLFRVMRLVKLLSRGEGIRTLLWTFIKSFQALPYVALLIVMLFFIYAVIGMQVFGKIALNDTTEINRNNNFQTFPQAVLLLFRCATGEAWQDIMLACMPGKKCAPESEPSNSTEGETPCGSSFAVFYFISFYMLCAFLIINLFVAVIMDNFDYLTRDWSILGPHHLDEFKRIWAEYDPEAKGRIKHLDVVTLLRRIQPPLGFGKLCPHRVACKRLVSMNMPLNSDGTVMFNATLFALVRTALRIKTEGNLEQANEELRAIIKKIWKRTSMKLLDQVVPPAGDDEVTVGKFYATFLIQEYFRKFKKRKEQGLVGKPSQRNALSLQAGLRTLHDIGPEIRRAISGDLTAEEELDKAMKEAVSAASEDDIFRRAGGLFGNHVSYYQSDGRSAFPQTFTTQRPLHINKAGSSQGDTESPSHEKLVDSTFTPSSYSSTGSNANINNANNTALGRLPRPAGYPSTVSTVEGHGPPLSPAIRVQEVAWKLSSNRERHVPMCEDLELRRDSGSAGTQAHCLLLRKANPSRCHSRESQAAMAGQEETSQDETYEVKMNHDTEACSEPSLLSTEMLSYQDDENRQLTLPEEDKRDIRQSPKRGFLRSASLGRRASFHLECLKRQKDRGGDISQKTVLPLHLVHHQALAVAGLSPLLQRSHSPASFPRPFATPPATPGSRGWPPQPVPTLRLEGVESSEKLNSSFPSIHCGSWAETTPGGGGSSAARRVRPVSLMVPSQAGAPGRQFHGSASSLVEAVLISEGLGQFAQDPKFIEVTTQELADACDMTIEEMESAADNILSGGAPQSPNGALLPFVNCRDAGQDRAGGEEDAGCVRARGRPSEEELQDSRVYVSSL
T6 sequence (Q08289 whole entry partner): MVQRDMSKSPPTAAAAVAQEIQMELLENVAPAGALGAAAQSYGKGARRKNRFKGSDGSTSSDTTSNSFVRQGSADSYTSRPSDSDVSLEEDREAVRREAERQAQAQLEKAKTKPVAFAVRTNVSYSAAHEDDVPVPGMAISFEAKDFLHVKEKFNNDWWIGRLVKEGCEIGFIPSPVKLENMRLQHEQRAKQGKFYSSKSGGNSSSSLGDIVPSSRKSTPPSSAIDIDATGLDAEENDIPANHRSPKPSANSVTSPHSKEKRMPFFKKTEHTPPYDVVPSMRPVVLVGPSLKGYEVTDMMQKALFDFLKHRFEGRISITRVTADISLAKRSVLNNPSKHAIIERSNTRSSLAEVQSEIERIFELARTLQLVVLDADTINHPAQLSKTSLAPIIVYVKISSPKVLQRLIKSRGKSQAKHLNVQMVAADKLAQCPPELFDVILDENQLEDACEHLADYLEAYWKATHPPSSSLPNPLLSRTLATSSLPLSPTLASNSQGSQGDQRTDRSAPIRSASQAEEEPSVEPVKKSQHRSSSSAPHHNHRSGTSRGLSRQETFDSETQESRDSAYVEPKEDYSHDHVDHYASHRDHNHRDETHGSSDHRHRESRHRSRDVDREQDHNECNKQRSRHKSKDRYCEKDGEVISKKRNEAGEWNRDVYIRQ
T6 sequence (P54289 25-946 partner limits assumed): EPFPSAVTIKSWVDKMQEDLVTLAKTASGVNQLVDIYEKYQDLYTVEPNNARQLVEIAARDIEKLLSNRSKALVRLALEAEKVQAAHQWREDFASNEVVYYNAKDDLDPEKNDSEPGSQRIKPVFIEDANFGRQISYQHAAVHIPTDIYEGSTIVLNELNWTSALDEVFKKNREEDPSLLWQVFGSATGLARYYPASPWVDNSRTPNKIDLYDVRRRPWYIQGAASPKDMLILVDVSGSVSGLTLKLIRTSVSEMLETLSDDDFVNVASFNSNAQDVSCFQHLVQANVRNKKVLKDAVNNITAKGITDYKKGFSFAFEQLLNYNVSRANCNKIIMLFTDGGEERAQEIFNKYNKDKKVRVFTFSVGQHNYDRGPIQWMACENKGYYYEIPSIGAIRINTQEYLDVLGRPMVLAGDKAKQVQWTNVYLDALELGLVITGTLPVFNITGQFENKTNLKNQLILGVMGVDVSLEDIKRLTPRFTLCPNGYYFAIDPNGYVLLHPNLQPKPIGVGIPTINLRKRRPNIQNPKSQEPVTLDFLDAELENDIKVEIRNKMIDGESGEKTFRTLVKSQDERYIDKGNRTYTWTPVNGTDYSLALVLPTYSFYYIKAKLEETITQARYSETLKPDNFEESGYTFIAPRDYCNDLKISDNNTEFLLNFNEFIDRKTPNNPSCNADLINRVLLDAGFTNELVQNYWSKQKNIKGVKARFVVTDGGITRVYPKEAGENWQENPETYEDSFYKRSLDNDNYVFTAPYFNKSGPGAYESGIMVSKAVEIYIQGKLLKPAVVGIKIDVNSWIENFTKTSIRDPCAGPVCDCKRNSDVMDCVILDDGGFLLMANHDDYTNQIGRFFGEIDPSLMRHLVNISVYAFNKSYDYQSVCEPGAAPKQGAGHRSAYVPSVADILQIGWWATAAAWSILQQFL
T6 sequence (P54289 947-1103 partner limits assumed): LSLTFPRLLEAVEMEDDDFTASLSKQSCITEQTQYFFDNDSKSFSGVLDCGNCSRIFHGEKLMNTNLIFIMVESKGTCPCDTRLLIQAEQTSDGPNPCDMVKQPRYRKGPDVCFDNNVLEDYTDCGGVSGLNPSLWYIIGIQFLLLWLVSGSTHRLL
T1 sequence (P33261 whole entry): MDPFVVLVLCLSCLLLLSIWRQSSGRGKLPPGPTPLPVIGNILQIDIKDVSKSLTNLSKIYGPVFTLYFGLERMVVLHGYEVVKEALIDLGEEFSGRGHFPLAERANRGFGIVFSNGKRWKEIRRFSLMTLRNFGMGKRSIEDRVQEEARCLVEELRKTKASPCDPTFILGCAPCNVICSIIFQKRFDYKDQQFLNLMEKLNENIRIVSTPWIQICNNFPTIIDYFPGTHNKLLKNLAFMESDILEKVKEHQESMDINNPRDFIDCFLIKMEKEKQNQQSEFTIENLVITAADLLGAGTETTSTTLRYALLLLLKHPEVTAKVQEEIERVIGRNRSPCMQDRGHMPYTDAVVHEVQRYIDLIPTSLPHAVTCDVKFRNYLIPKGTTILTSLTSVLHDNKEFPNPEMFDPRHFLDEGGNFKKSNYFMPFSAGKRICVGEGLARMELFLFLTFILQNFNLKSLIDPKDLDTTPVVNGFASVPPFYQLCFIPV
T3 sequence (P11712 whole entry): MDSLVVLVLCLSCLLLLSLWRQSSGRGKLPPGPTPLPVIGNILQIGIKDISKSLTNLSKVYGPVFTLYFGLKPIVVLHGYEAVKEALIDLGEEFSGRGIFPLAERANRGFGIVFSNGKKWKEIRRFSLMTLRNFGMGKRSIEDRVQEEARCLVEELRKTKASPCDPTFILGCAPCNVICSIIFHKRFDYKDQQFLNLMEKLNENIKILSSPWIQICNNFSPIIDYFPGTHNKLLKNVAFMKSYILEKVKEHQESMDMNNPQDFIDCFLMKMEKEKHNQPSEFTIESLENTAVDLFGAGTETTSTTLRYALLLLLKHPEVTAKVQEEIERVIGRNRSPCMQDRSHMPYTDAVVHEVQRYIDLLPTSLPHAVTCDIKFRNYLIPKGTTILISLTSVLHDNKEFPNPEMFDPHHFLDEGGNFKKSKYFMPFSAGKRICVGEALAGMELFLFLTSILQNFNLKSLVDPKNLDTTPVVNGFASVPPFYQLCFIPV

Q: Which MIC ([1]; CLSI broth microdilution, triplicate, read-out: MIC ATCC 29213) does the source give for COc1ccc2ncc(F)c(CC[C@@]3(O)CO[C@@H]4[C@@H](NCc5cc6c(cn5)OCCO6)CO[C@@H]43)c2n1 [Compound 6, (3R, 3aS,6S,6aR)-6-(((2,3-dihydro-[1,4]dioxino[2,36-c]pyridin-7-yl)methyl)amnino)-3-(2-(3-fluoro-6-methoxy-1,5-naphthyridin-4-yl)ethyl)hexahydrofuro[3,2-b]furan-3-ol] here?
A: 1 to 4 µg/mL

Q: And the MIC ([1]; same MIC expressed in μM, read-out: MIC for S. aureus ATCC 29213)?
A: 2 to 8 µM

Q: What about the CYP2C19 inhibition [2] of the same compound?
A: Less than 50%

Q: And the MIC [3]?
A: 1 µg/mL (≈ 2.01 µM)

Q: And the CYP1A2 inhibition [4]?
A: Less than 50%

Q: What about the inhibition at 100 µM [5] of the same compound?
A: 96%

Q: What about the MIC [6] of the same compound?
A: ≤ 0.12 µg/mL

Q: What about the CYP2C9 inhibition [7] of the same compound?
A: Less than 50%

Q: And the MIC [8]?
A: ≤ 0.12 µg/mL

Q: And the MIC [9]?
A: 0.25 µg/mL (≈ 0.501 µM)

Q: What about the “% Cytotoxicity” value ([10]; 0.01 μM) of the same compound?
A: 6%

Q: What about the “% Cytotoxicity” value ([10]; 0.1 μM) of the same compound?
A: 4%

Q: And the “% Cytotoxicity” value ([10]; 1 μM)?
A: 9%

Q: What about the “% Cytotoxicity” value ([10]; 10 μM) of the same compound?
A: 8%

Q: What about the “hERG IC50 higher than benzodioxine 24” value [11] of the same compound?
A: ca. 3 fold

Q: What about the pIC50 [12] of the same compound?
A: 6.28

Q: And the CYP2D6 inhibition [13]?
A: Less than 50%

Q: And the CYP2B6 inhibition [14]?
A: Less than 50%

Q: And the “% Inhibition Cav1.2 (peak current)” value ([15]; 3 μM)?
A: 4.7%

Q: And the “% Inhibition Cav1.2 (peak current)” value ([15]; 30 μM)?
A: 23.3%

Q: What about the “% Inhibition Cav1.2 (peak current)” value ([15]; 100 μM) of the same compound?
A: 24.9%

Q: And the MIC [16]?
A: 2 µg/mL (≈ 4.01 µM)
